The test system of assay [1] is mice (p-phenylquinone-induced abdominal writhing). Kind of assay: P-phenylquinone-induced abdominal writhing test in mice. Format: in vivo. The conditions noted are these: Mus musculus, sc, p-phenylquinone i.p. 2 mg/Kg after 20 min pretreatment, calculated for the free base, read-out: ANALGESIA WRITHING ED50 (a). Here is the method: P-phenylquinone-induced abdominal writhing test in mice
The methodology employed is based on that described by Sigmund et al, Proc. Soc. Exptl. Biol. 95, 729/1957, modified by Milne and Twomey, Agents and Actions, 10, 31/1980.
Male Charles River mice (Swiss Strain), 25-36 g body weight, are used. Animals are allowed food and water ad libitum and are randomized into groups of 10 prior to experimentation. Test compounds are dissolved in either distilled water or distilled water plus 0.1M AMS, and administered by the subcutaneous route in a final volume of 10 ml/Kg. Control animals receive 10 ml/Kg of the appropriate vehicle alone. Following a pretreatment period of 20 min., mice are injected intraperitoneally with p-phenylquinone, 2 mg/Kg at 37° C. in a final volume of […]. Next, the mice are placed, in a groups of 3, in a compartmented perspex box maintained at room temperature and are observed for a period of 8 min. During this period the number of abdominal writhing responses per animal are recorded where writhing consists of an intermittent contraction of the abdomen associated with hind leg extension.
The degree of antinociceptive protection afforded by the test compound is determined as the mean number of writhing responses observed in the treated group (T) expressed as a percentage of the mean number of writhing responses in the control group (C) according to the following formula:
[1-(T/C)]×100%=% graded protection.

Another assay deals with mice (tail-flick). Kind of assay: animal or person. To be noted: Mus musculus, sc, 0.5 h, read-out: ANALGESIA TAIL-FLICK ED50 (a). Format: in vivo.
In another assay the target is T1, kappa opioid receptors (Cavia porcellus, UniProt P41144).
T1 construct: fresh guinea pig brain homogenate; from tissue; host or cells: guinea pig whole brain without cerebellum, homogenate
T1 sequence (P41144 whole entry): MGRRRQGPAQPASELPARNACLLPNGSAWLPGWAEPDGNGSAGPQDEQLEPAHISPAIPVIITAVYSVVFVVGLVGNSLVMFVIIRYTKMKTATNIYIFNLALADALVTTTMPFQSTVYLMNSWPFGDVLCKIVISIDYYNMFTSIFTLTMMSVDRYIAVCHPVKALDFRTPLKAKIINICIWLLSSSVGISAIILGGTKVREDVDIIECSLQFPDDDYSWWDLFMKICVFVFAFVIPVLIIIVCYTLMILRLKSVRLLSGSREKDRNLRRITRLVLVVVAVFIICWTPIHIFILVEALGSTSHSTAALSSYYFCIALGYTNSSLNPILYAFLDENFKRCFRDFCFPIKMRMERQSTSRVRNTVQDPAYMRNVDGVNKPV
Briefly: biochemical. Format: binding, guinea pig.

In a further assay the target is μ opioid receptor (Cavia porcellus, UniProt A0ACM8Q262). Briefly: Binding to μ sites (3H-DAGO), receptor affinity study. Also noted: species or system guinea pig.
Sequence of μ opioid receptor (A0ACM8Q262 1-400): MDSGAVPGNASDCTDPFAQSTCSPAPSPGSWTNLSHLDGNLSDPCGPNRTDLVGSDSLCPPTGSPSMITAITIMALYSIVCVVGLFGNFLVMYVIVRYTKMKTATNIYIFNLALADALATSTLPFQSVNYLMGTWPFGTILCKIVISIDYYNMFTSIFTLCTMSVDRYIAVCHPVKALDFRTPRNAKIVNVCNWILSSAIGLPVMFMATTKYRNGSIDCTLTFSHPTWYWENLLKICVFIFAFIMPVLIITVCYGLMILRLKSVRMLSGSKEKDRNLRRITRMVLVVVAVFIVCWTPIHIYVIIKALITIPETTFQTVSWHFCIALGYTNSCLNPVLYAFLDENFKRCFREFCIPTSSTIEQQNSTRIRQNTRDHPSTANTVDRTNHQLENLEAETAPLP
[2] abbreviates: read-out: OPIATE RECEPTORS BINDING ki MU; guinea pig brain homogenate; 3H-DAGO; 40 min, 25° C.
Setting [3] is: read-out: OPIATE RECEPTORS BINDING ki MU.

SMILES strings stand for the structures. Counter-ions that a name gives are not always drawn. Like-named read-outs stand apart in the source and are kept apart here. A value given as a limit tells only on which side of the number the result lay.

Usually ED50 stands for the midpoint of the dose-response relation. For orientation: Ki means a measure of affinity in units of concentration, obtained from inhibition or displacement.

As for `O=C(Cc1ccc(Cl)c(Cl)c1)N1CCc2sccc2C1CN1CCCC1` (single isomer, unassigned) [Example 9, (-)-4-(pyrrolidin-1-yl)methyl-5-(3,4-dichlorophenyl)acetyl-4,5,6,7-tetrahydrothieno[3,2-c]pyridine D(-) tartrate hemihydrate], the values for the 50% effective dose (ED50) (in assay [1]; in the assay with mice (tail-flick)) were 0.003 mg/kg and 0.007 mg/kg, respectively. In addition, the results for the inhibitory constant (Ki) at kappa opioid receptors and at μ opioid receptor (setting [2]) were 1.07 nM and 47.2 nM, respectively.

Turning to `O=C(Cc1ccc(Cl)c(Cl)c1)N1CCc2sccc2C1CN1CCCCC1` (single isomer, unassigned) [Example 10, (-)-4-(piperidin-1-yl)methyl-5-(3,4-dichlorophenyl)acetyl-4,5,6,7-tetrahydrothieno[3,2-c]pyridine L(+) tartrate hemihydrate], the ED50 in assay [1] is 0.01 mg/kg; in the assay with mice (tail-flick) it was 0.041 mg/kg. Further, on μ opioid receptor (setting [3]), the inhibitory constant (Ki) amounted to 500 nM.

Take `O=C(Cc1ccc(C(F)(F)F)cc1)N1CCc2sccc2C1CN1CCCCC1` (single isomer, unassigned) [Example 13, (-)-4-(piperidin-1-yl)methyl-5-(4-trifluoromethylphenyl)acetyl-4,5,6,7-tetrahydrothieno[3,2-c]pyridine L(+) tartrate monohydrate]: the figures for the ED50 (in assay [1]; with mice (tail-flick)) were 0.01 mg/kg and 0.054 mg/kg, respectively. Moreover, on μ opioid receptor (setting [2]), the inhibitory constant (Ki) stood at 468 nM.

Regarding `CC(C1c2ccsc2CCN1C(=O)Cc1ccc(Cl)c(Cl)c1)N(C)C.Cl` (single isomer, unassigned) [Example 18, 4-[1-(dimethylamino)ethyl]-5-(3,4-dichlorophenyl)acetyl-4,5,6,7-tetrahydrothieno[3,2-c]pyridine hydrochloride], the values for the ED50 (in assay [1]; in the assay on mice (tail-flick)) were 0.204 mg/kg and 0.824 mg/kg, respectively.

For `Cl.O.O=C(Cc1ccc(Cl)c(Cl)c1)N1CCc2sccc2C1CN1CCCC1` (stereo not shown) [Example 3, 4-(pyrrolidin-1-yl)methyl-5-(3,4-dichlorophenyl)acetyl-4,5,6,7-tetrahydrothieno[3,2-c]pyridine hydrochloride monohydrate], the ED50 is 0.004 mg/kg in assay [1] and 0.019 mg/kg in the assay on mice (tail-flick). In addition, the Ki on kappa opioid receptors was 1.19 nM; on μ opioid receptor (setting [2]), 85 nM.

For the molecule `Cl.O=C(Cc1ccc(C(F)(F)F)cc1)N1CCc2sccc2C1CN1CCCC1` (stereo not shown) [Example 4, 4-(pyrrolidin-1-yl)methyl-5-(4-trifluoromethylphenyl)acetyl-4,5,6,7-tetrahydrothieno[3,2-c]pyridine hydrochloride], the ED50 is 0.004 mg/kg in assay [1] and 0.018 mg/kg with mice (tail-flick). Besides, the Ki stood at 1.78 nM on kappa opioid receptors and 39.2 nM at μ opioid receptor (setting [2]).

As for `Cl.O=C(Cc1ccc(Cl)c(Cl)c1)N1CCc2sccc2C1CN1CCCCC1` (stereo not shown) [Example 5, 4-(piperidin-1-yl)methyl-5-(3,4-dichlorophenyl)acetyl-4,5,6,7-tetrahydrothieno[3,2-c]pyridine hydrochloride], the ED50 in assay [1] was 0.022 mg/kg; in the assay on mice (tail-flick) it was 0.09 mg/kg. The figures for the inhibition constant (Ki) at kappa opioid receptors and on μ opioid receptor (setting [2]) were 1.29 nM and 781 nM, respectively.

With `CN(C)CC1c2ccsc2CCN1C(=O)Cc1ccc(Cl)c(Cl)c1.Cl` (stereo not shown) [Example 6, 4-dimethylaminomethyl-5-(3,4-dichlorophenyl)acetyl-4,5,6,7-tetrahydrothieno[3,2-c]pyridine hydrochloride], in the assay with mice (tail-flick), the 50% effective dose (ED50) is 0.042 mg/kg. For the same molecule, the inhibitory constant (Ki) at kappa opioid receptors is 1.75 nM; on μ opioid receptor (setting [2]), 607 nM.

Turning to `CN(C)CC1c2ccsc2CCN1C(=O)Cc1ccc(C(F)(F)F)cc1` (stereo not shown) [Example 7, 4-dimethylaminomethyl-5-(4-trifluoromethylphenyl)acetyl-4,5,6,7-tetrahydrothieno[3,2-c]pyridine 1.5 hydrochloride 1/3 hydrate], in the assay on mice (tail-flick), the median effective dose (ED50) was 0.093 mg/kg. Also, the results for the Ki on kappa opioid receptors and at μ opioid receptor (setting [3]) were 3.46 nM and 513 nM, respectively.

In the case of `O=C(Cc1ccc(C(F)(F)F)cc1)N1CCc2sccc2C1CN1CCCCC1` (stereo not shown) [Example 12, 4-(piperidin-1-yl)methyl-5-(4-trifluoromethylphenyl)acetyl-4,5,6,7-tetrahydrothieno[3,2-c]pyridine], the ED50 in assay [1] was 0.034 mg/kg; in the assay on mice (tail-flick), 0.09 mg/kg. Besides, the Ki at μ opioid receptor (setting [2]) is 793 nM.

As for `O=C(Cc1ccc(Cl)c(Cl)c1)N1CCc2[nH]c3ccccc3c2C1CN1CCCC1` (stereo not shown) [Example 15, 1-(pyrrolidin-1-yl)methyl-2-(3,4-dichlorophenyl)acetyl-1,2,3,4-tetrahydro-5H-pyrido[4,3-b]indole hydrochloride hemihydrate], the ED50 (in assay [1]; in the assay on mice (tail-flick)) was over 10 mg/kg throughout.

Regarding `O=C(Cc1ccc(Cl)c(Cl)c1)N1CCc2[nH]c3ccccc3c2C1CN1CCCCC1` (stereo not shown) [Example 16, 1-(piperidin-1-yl)methyl-2-(3,4-dichlorophenyl)acetyl-1,2,3,4-tetrahydro-5H-pyrido[4,3-b]indole], the median effective dose (ED50) (in assay [1]; in the assay on mice (tail-flick)) was over 10 mg/kg in each case.

Regarding `O=C(Cc1ccc2c(c1)CCCC2)N1CCc2sccc2C1CN1CCCCC1` (stereo not shown) [Example 19, 4-(piperidin-1-yl)methyl-5-(5,6,7,8-tetrahydronapht-2-yl) acetyl-4,5,6,7-tetrahydrothieno[3,2-c]pyridine hydrochloride hemihydrate], the ED50 is 0.092 mg/kg in assay [1] and 0.22 mg/kg in the assay on mice (tail-flick).

In the case of `O=C(Cc1ccc2c(c1)CCC2)N1CCc2sccc2C1CN1CCCCC1` (stereo not shown) [Example 20, 4-(piperidin-1-yl)methyl-5-(indan-5-yl)acetyl-4,5,6,7-tetrahydrothieno[3,2-c]pyridine hydrochloride 1/3 hydrate], the median effective dose (ED50) was 0.092 mg/kg in assay [1] and 0.412 mg/kg in the assay with mice (tail-flick).

Take `O=C(Cc1ccc2c(c1)CCCC2)N1CCc2sccc2C1CN1CCCC1` (stereo not shown) [Example 21, 4-(pyrrolidin-1-yl)methyl-5-(5,6,7,8-tetrahydronapht-2-yl) acetyl-4,5,6,7-tetrahydrothieno[3,2-c]pyridine hydrochloride]: the ED50 in assay [1] was 0.022 mg/kg; with mice (tail-flick), 0.236 mg/kg. The Ki on μ opioid receptor (setting [2]) was 56 nM.

In the case of `Cl.O=C(Cc1ccc2c(c1)CCC2)N1CCc2sccc2C1CN1CCCC1` (stereo not shown) [Example 22, 4-(pyrrolidin-1-yl)methyl-5-(indan-5-yl)acetyl-4,5,6,7-tetrahydrothieno[3,2-c]pyridine hydrochloride], the ED50 was 0.014 mg/kg in assay [1] and 0.146 mg/kg in the assay on mice (tail-flick). For the same molecule, on μ opioid receptor (setting [2]), the Ki is 104 nM.

Turning to `O=C(Cc1ccc(Cl)c(Cl)c1)N1CCc2[nH]cnc2C1CN1CCCC1` (stereo not shown) [Example 23, 4-(pyrrolidin-1-yl)methyl-5-(3,4-dichlorophenyl)acetyl-4,5,6,7-tetrahydroimidazo[4,5-c]pyridine], the ED50 with mice (tail-flick) is over 50 mg/kg. The Ki at μ opioid receptor (guinea pig brain homogenate; 3H-DAGO; 40 min, 25° C.; read-out: OPIATE RECEPTORS BINDING ki MU) was over 1000 nM.

The values above are taken from patent US4999359A, “Heterocyclic ethylene diamine compounds and their pharmaceutical compositions and methods” (Dr. Lo Zambeletti S.p.A., priority 1988, dated 1991).
